In patent US11266636B2, “Maleate salt of the free base of N-[5-(aminosulfonyl)-4-methyl-1,3-thiazol-2-yl]-N-methyl-2-[4-(2-pyridinyl)-phenyl]-acetamide, pharmaceutical formulations, methods of manufacture and uses thereof for the treatment of herpes viruses” (priority 2016, dated 2022):
≈ marks a conversion by molar mass, not a printed value.

Columns and labels:
[1] = system: herpes simplex virus-2; conditions: comparison of literature values; cited from earlier work
[2] = Solubility in water and resulting pH; type: physicochemical; conditions: for solubility at 22 h: water, thermodynamic from solid
Description: Additionally, the solubility of the free base of pritelivir and its aforementioned salts in water was determined and the resulting pH was measured.
For detection, a diode-array detector was used. Absorption was recorded at a wavelength of 300 nm.

[3] = Solubility determination in different pharmaceutical excipients at ambient temperature; conditions: for solubility at 22 h: thermodynamic from solid
Description: Dimethyl sulfoxide (DMSO) served as control solvent.
Suspensions were prepared by weighing the test items into glass vials and addition of the appropriate solvent. The suspensions were shortly vortex-mixed and shaken over-head for 22 hours. Aliquots (500 μL) were transferred to filtration devices with polyvinylidene fluoride membranes and the solid matter was separated by centrifugation. The filtrates were diluted (1:100) in acetonitrile/methanol/water/acetic acid (25+25+50+0.5, v+v+v+v).
Control solutions of all salts were prepared in DMSO at a concentration of 20 mg/mL and treated as described above. The solubility was determined by concentration measurement of the diluted filtrate of the oversaturated solutions.
Chromatographic separation was performed on a Phenomenex Luna C18(2), 5 μm column (150×2 mm) by gradient elution using 1% acetic acid and acetonitrile/methanol (1+1, v+v) containing 1% acetic acid. For detection, a diode-array detector was used. Absorption was recorded at a wavelength of 300 nm. A detailed method description was filed in the raw data folder.

[4] = Short-term stability in pharmaceutical excipients over two weeks (ambient temperature and 50° C.); type: physicochemical; conditions: for Stability in polyethylene glycol (in words): two weeks storage at 50° C.
Description: Additionally, the solubility of the free base of pritelivir and its aforementioned salts in water was determined and the resulting pH was measured. […] For detection, a diode-array detector was used. Absorption was recorded at a wavelength of 300 nm. All calculations were carried out with Microsoft Excel 2010. Mean data are given as arithmetic means. Recoveries were calculated in comparison to the measured start concentration (t0).

[5] = Photostability (xenon lamp, ca. 2000 Wh/m^2, 29 hours, >310 nm), solids and acidic solutions; type: physicochemical; conditions: 0.1 M hydrochloric acid/acetonitrile (75+25)
Description: The compounds were exposed as solids and dissolved in 0.1 M hydrochloric acid/acetonitrile (75+25, v+v) at a target concentration of 0.3 mg/mL. Corresponding dark control samples were prepared and placed in UV-light protected vials in the irradiation chamber to keep the ambient conditions equivalent. Additionally, untreated solids were dissolved and analyzed as reference samples. Two samples were prepared from each solid test item. Approximately 20 mg of each test item (corrected for free base) was weighed into quartz glass vials. A second aliquot was weighed into light protected glass vials (dark control). Both samples were placed inside the irradiation chamber. […] Two aliquots were prepared (irradiated and dark control sample). The dark control samples were stored inside the irradiation chamber in closed and light protected glass vials, while the photostressed solutions were stored in quartz flasks, equipped only with a loose quartz glass cover. During irradiation, the samples were partially evaporated due to heat production inside the irradiation chamber. The extent of evaporation was variable from sample to sample (the sulphate salt of pritelivir free base was almost completely evaporated). […] The samples (solutions and solid state) were irradiated with a xenon lamp at […] through a glass filter for 29 hours (total applied dose of UV-light ca. 2000 Wh/m^2). The instrument used was a Suntest CPS+ (Atlas). By the use of the glass filter, only wavelengths >310 nm were irradiated, leading to simulation of the ID65 standard (indoor indirect daylight standard). […] The recorded average chamber heat temperature was 38° C. […] The % peak area was determined for the pritelivir free base in all tested samples. […] Absorption was recorded at a wavelength of 280 nm. […] The degree of decomposition was determined by chromatographic separation of (UV-active) degradation products and by determination of the respective percentage of the total peak area (% total peak area) per chromatogram. As salts dissociate in solution, the peak area of the pritelivir free base was determined in all samples.

[6] = Relative solubility in simulated gastric and intestinal fluids (FaSSGF, FaSSIF, FeSSIF); type: physicochemical; conditions: 2 hours; for Relative solubility in FaSSIF: fasted state simulated intestinal fluid, pH 6.5, 37° C.; for Relative solubility in FeSSIF: fed state simulated intestinal fluid, pH 5, 37° C.
Description: The pH was adjusted to 6.5 by addition of 1 N hydrochloric acid.
The pH was adjusted to 5 by addition of 1 N hydrochloric acid.
Suspensions of the mono ethane sulfonate salt, the maleate salt, the mono benzene sulfonate salt, the hemi ethane-1,2-disulfonate, the mesylate salt or the pritelivir free base were prepared as triplicates by weighing approximately 12 mg test item and addition of 600 μL FaSSGF, FaSSIF or FeSSIF (final concentration 20 mg/mL). The suspensions were incubated at 37° C. Aliquots (100 μL) were transferred into centrifugation devices (polyvinylidene difluoride membrane, 0.2 μm) for removal of solid matter (10 minutes at approximately 15000×g and 37° C.) after 0, 0.5, 1 and 2 hours. FaSSGF filtrates were diluted in acetonitrile to a final dilution of 1:1000. FaSSIF filtrates were diluted in acetonitrile to a final dilution of 1:50 and FeSSIF filtrates to a final dilution of 1:100.
The samples were analyzed for their content of the free base of pritelivir. […] As hydrolysis products were not determined only relative solubility was used for further evaluations of the results.

[7] = system: HSV-2; conditions: once daily suppressive therapy; cited from earlier work
[8] = 30% Captisol, aqueous with cosolvent or surfactant or cyclodextrin, Solubility in 30% Captisol, ambient temperature, 22 hours shaking
[9] = 30% hydroxypropyl-β-cyclodextrin (HP-beta CD), aqueous with cosolvent or surfactant or cyclodextrin, Solubility in 30% HP-beta CD, 30% Hydroxypropyl-β-cyclodextrin, ambient temperature
[10] = polyethylene glycol (PEG 400), organic solvent or mixture, Solubility in polyethylene glycol (PEG 400), PEG 400, ambient temperature
[11] = propylene glycol, organic solvent or mixture, Solubility in propylene glycol (PG), ambient temperature

## C[C@H](Cn1cnc2c(N)ncnc21)OCP(=O)(O)O [Tenofovir]
[1]
  IC50-values compared to the maleate salt: significantly higher

## Cc1nc(N(C)C(=O)Cc2ccc(-c3ccccn3)cc2)sc1S(N)(=O)=O [free base of pritelivir, N-[5-(aminosulfonyl)-4-methyl-1,3-thiazol-2-yl]-N-methyl-2-[4-(2-pyridinyl)-phenyl]-acetamide]
[2]
  solubility at 22 h: 0.0013 mg/mL (≈ 0.00323 mM)
[3]; [8]
  solubility at 22 h: 1.79 mg/mL (≈ 4.45 mM)
[3]; [9]
  solubility at 22 h: 1.91 mg/mL (≈ 4.75 mM)
[3]; [10]
  solubility at 22 h: 89.6 mg/mL (≈ 223 mM)
[4]; two weeks, ambient temperature
  Stability in ethanol, PEG and propylene glycol: slight decrease

## Cc1nc(N(C)C(=O)Cc2ccc(-c3ccccn3)cc2)sc1S(N)(=O)=O.O=C(O)/C=C\C(=O)O [maleate salt, maleate salt of the free base of N-[5-(amino-sulfonyl)-4-methyl-1,3-thiazol-2-yl]-N-methyl-2-[4-(2-pyridinyl)phenyl]acetamide]
[2]
  Solubility in water: 0.48 mg/mL
[5]; 29 hours, total dose 2000 Wh/m^2
  % total peak area of the free base of pritelivir, irradiated solutions: 71.5%
[3]; [8]
  solubility at 22 h: 24.5 mg/mL
[3]; [9]
  solubility at 22 h: 24.1 mg/mL
[3]; ethanol, organic solvent or mixture, Solubility in ethanol, ambient temperature
  solubility at 22 h: 0.439 mg/mL
[3]; [10]
  solubility at 22 h: 32.2 mg/mL
[3]; propylene glycol, ambient temperature, listed as Maleate Salt of Free Base Pritelivir
  Solubility in propylene glycol (PG): 5.23 mg/mL
[3]; [11]
  solubility at 22 h: 5 to 6 mg/mL
[6]
  Relative solubility in FaSSIF: essentially similar concentrations
  Relative solubility in FeSSIF: essentially similar concentrations

## Cc1nc(N(C)C(=O)Cc2ccc(-c3ccccn3)cc2)sc1S(N)(=O)=O.O=S(=O)(O)c1ccccc1 [mono benzene sulfonate salt, N-methyl-N-(4-methyl-5-sulfamoylthiazol-2-VI)-2-(4-(pyridin-2-yl)phenyl)acetamide benzenesulfonate]
[4]
  Stability in polyethylene glycol (in words): showed stability
[6]
  Relative solubility in FaSSIF: essentially similar concentrations
  Relative solubility in FeSSIF: essentially similar concentrations

## CCS(=O)(=O)O.Cc1nc(N(C)C(=O)Cc2ccc(-c3ccccn3)cc2)sc1S(N)(=O)=O [mono ethane sulfonate salt, N-methyl-N-(4-methyl-5-sulfamoylthiazol-2-yl)-2-(4-(pyridin-2-yl)phenyl)acetamide ethanesulfonate]
[2]
  solubility at 22 h: 0.175 to 0.606 mg/mL
[3]; [11]
  solubility at 22 h: 5 to 6 mg/mL
[6]; fasted state simulated gastric fluid, pH 1.6, 37° C.
  Relative solubility in FaSSGF: highest relative solubility
[6]
  Relative solubility in FaSSIF: highest relative solubility
  Relative solubility in FeSSIF: highest relative solubility

## Cc1nc(N(C)C(=O)Cc2ccc(-c3ccccn3)cc2)sc1S(N)(=O)=O.O=S(=O)(O)O [sulfate salt, N-methyl-N-(4-methyl-5-sulfamoylthiazol-2-yl)-2-(4-(pyridin-2-yl)phenyl)acetamide Sulfate]
[2]
  solubility at 22 h: 0.175 to 0.606 mg/mL
[5]
  % total peak area of the free base of pritelivir, dark control samples of the acidic solutions: 95.7%
[3]; organic solvent or mixture
  solubility at 22 h: 12.5 mg/mL
[4]
  Stability in polyethylene glycol (in words): showed stability

## CC(C)[C@H](N)C(=O)OCCOCn1cnc2c(=O)[nH]c(N)nc21 [valacyclovir]
[7]
  Risk of transmission of genital herpes: significantly reduces the risk of transmission

## N-methyl-N-(4-methyl-5-sulfamoylthiazol-2-yl)-2-(4-(pyridin-2-yl)phenyl)acetamide hemiethane-1,2-disulphonate [hemi ethane-1,2-disulfonate salt]
[5]
  % total peak area of the free base of pritelivir, dark control samples of the acidic solutions: 94.7%
